Measured values reported in patent US20200392158A1, “INHIBITORS OF LEUCINE RICH REPEAT KINASE 2” (GLAXOSMITHKLINE INTELLECTUAL PROPERTY DEVELOPMENT LIMITED, priority 2017, published 2020).

Key:
[1] = molecular target: T1, LRRK2 kinase in SH-SY5Y cells over-expressing recombinant full length LRRK2 (Homo sapiens, UniProt Q5S007); assay: Recombinant cellular LRRK2 AlphaScreen assay (LRRK2 Ser935 phosphorylation); assay type: cell-based; settings: 60 min
T1 construct: A BacMam virus expressing full length recombinant LRRK2 was purchased from Invitrogen; host or cells: SH-SY5Y human neuroblastoma cells transduced with BacMam LRRK2 virus
T1 sequence (Q5S007 whole entry): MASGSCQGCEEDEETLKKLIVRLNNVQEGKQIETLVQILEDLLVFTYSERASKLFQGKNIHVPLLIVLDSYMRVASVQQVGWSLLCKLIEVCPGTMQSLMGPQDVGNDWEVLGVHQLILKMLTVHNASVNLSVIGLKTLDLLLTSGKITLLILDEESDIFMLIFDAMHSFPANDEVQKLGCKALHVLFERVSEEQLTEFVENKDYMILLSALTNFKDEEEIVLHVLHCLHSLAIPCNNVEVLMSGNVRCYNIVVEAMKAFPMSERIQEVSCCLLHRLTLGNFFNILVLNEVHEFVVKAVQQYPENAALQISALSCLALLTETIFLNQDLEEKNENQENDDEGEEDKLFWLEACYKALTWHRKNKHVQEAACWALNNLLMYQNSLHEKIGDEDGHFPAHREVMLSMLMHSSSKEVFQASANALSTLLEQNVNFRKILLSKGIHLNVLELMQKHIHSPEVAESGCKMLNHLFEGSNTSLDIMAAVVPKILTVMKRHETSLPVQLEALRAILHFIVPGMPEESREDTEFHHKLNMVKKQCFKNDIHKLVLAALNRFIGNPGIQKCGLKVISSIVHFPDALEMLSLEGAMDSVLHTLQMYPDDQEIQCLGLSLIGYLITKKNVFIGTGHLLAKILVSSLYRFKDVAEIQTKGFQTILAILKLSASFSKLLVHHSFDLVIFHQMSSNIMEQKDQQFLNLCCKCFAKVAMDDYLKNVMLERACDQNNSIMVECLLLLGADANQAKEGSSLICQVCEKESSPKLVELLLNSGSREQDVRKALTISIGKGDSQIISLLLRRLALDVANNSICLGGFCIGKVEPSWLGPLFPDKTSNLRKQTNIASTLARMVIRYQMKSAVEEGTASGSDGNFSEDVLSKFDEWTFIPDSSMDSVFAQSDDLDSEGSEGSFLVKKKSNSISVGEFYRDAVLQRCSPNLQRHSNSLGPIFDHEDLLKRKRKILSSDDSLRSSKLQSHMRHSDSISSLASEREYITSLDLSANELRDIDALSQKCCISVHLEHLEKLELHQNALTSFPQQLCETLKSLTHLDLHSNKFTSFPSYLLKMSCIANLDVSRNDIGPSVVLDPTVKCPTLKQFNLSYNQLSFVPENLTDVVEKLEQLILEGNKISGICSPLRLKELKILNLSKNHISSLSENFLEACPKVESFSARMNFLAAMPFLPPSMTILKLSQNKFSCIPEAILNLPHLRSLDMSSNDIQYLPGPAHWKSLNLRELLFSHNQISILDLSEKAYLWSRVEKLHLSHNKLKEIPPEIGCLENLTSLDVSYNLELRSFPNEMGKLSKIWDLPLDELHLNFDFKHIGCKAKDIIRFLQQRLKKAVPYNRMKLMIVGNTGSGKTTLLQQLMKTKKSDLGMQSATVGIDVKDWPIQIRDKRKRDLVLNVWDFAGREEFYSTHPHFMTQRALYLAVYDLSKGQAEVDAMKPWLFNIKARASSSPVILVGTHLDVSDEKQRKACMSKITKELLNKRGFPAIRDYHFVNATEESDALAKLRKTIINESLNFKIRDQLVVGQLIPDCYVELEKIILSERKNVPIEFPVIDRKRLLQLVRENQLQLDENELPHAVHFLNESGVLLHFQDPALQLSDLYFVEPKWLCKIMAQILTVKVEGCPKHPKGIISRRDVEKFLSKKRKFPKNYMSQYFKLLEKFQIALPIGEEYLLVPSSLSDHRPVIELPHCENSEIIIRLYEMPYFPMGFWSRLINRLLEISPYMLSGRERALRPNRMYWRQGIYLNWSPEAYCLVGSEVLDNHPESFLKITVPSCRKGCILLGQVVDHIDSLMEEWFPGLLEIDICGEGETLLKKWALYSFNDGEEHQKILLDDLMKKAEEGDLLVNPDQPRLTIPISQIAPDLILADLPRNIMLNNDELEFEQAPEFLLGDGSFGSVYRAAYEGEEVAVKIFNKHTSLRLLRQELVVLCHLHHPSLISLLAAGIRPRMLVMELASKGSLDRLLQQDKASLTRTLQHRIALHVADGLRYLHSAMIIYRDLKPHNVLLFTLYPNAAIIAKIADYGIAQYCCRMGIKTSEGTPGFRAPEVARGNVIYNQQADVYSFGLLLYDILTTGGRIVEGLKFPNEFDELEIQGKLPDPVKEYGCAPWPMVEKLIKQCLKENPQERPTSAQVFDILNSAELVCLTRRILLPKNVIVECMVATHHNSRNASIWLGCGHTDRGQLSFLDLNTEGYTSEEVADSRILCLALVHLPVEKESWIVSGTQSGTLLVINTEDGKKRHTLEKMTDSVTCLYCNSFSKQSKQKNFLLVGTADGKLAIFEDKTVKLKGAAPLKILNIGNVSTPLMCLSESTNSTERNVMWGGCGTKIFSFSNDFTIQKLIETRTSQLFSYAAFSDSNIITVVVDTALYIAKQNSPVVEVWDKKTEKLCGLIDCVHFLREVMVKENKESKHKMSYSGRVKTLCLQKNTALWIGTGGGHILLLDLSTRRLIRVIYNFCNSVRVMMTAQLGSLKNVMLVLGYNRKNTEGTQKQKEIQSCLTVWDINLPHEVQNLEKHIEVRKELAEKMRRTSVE
Outline: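 SH-SY5Y cells transduced with BacMam full-length LRRK2 (MOI 50) for 24 h, then treated 60 min at 37 °C with compound (11-point 1:4 series, top 10 uM, 0.1% DMSO). Lysates probed by AlphaScreen for pSer935 vs total LRRK2; values fitted to a sigmoidal dose-response model.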

human hepatocytes = assay: Metabolic stability assay in hepatocytes; assay type: in vitro ADME; settings: 0.5 μM test compound, intrinsic clearance
Description: c. Metabolic Stability Assay
Metabolic stability of compounds of the invention was evaluated in hepatocytes from human and preclinical species (e.g. rat). A test compound (0.5 μM) was incubated with 0.5 million viable hepatocytes at 37° C. in a 95% humidified incubator supplied with 5% CO2. 7-ethoxycoumarin was used as positive control and was treated in the same manner as the test compound. The incubation samples were gently mixed at 150 rpm. Incubation medium was Williams' Medium E containing 2 mM GlutaMAX™ and 25 mM HEPES. Samples were removed from incubation at a specified time interval (tx): 0, 15, 30, 60, 90 and 120 min. Reactions were terminated by adding equal volume of ice-cold acetonitrile/methanol/acetic acid (80/20/1, v/v/v) containing an internal standard (e.g. 100 ng/mL to butamide as internal standard). […] The instrument responses of the test compound and the internal standard were measured using a compound specific LC/MS/MS methodology. The percentage of remaining test compound is calculated from the peak area ratio between the remaining test compound after incubation (tx) and the test compound peak area at the beginning of incubation (tx=0 min).
The half-life (t1/2) is calculated using the following equation: […]
Metabolic stability of a test compound is expressed as Intrinsic Clearance (Clint) and is calculated from the half-life (t1/2) using the following equation: […]

[2] = molecular target: T2, full length G2019 human LRRK2 (Homo sapiens, UniProt Q5S007, R50H); assay: Full length G2019 human LRRK2 inhibition mass spectrometry assay; assay type: biochemical; settings: LRRKtide to phospho-LRRKtide conversion, RapidFire MS, 2 mM ATP
T2 construct: made in house; host or cells: HEK293 6E cells transduced with BacMam virus (virus generated in Sf9 cells)
T2 sequence (Q5S007 with tags, fused parts or gaps R50H): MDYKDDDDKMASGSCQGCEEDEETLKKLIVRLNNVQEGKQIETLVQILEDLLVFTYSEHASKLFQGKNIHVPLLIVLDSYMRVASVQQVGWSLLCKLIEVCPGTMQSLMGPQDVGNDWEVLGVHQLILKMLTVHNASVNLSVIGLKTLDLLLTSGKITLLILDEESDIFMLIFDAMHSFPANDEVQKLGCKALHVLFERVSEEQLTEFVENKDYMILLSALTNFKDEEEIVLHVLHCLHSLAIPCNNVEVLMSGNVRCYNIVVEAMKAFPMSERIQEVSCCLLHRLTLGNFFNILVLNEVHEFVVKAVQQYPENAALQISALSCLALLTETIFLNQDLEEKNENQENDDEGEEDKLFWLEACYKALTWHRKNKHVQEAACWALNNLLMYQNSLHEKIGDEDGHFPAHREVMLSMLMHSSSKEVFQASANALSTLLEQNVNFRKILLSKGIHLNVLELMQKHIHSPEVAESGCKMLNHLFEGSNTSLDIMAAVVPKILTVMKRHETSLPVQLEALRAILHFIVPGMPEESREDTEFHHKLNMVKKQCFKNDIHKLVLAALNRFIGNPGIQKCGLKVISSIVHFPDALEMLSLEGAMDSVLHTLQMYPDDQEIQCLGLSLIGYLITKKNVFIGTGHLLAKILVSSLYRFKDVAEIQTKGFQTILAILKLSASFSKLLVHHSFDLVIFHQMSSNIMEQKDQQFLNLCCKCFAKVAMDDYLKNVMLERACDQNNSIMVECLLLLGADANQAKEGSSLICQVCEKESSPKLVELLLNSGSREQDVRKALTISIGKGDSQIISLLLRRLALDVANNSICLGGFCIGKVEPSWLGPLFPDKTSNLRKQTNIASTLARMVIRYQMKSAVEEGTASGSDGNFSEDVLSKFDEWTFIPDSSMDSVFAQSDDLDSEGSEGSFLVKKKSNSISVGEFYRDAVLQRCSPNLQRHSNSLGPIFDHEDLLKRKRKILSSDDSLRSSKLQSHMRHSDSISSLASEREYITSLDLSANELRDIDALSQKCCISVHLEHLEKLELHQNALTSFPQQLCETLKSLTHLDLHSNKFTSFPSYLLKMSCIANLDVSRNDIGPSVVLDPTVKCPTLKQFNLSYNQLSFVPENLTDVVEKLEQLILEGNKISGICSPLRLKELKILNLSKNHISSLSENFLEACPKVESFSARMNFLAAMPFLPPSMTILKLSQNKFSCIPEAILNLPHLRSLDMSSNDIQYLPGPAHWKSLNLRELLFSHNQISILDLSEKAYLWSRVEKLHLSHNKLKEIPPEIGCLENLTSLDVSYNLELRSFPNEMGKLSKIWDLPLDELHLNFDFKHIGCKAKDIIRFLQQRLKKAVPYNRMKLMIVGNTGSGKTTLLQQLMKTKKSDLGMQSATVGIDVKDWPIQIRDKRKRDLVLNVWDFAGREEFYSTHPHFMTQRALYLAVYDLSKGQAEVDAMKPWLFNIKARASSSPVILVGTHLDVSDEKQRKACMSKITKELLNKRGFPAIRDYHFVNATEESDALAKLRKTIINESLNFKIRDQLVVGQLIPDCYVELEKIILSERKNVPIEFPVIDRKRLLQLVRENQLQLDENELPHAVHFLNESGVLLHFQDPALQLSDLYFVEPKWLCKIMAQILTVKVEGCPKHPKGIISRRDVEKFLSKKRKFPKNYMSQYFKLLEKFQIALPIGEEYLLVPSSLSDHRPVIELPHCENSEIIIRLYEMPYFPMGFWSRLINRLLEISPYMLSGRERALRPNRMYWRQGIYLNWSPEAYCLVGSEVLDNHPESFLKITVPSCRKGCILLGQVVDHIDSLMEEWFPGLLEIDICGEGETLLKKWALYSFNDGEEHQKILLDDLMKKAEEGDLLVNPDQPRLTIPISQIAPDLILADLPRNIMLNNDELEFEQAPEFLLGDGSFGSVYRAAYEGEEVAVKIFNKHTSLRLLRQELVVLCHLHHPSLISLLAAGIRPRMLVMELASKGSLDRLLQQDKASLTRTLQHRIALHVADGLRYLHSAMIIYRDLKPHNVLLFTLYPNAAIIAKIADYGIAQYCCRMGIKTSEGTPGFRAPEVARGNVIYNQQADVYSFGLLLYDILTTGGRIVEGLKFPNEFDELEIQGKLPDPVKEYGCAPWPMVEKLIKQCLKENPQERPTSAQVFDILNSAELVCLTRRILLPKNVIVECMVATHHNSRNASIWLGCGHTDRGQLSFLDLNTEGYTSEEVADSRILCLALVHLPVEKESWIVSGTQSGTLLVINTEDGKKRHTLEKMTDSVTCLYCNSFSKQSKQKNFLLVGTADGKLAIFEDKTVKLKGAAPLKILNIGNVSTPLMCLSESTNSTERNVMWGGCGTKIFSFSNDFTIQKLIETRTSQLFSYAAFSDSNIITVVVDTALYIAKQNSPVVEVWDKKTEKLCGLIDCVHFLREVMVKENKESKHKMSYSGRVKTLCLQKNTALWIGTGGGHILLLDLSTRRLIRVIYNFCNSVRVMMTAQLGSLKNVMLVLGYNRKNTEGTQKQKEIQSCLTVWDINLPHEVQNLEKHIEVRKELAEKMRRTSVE
Outline: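 Purified full-length Flag-tagged G2019 LRRK2, ~25 nM, with 25 μM LRRKtide and 2 mM ATP in 50 mM Hepes pH 7.2, 10 mM MgCl2, 150 mM NaCl, 1 h at room temperature. Quenched with formic acid; phospho- and unphosphorylated LRRKtide measured by RapidFire MS. pIC50 from 4-parameter fit of % conversion, 11 points, top 100 μM.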

SMILES | IC50 [1] | Clint (human) (human hepatocytes) | IC50 [2]
Cc1c2c(nn1C(=O)C1CC1)OCCCNc1nc(ncc1Cl)N2 [E362, 14-Chloro-5-cyclopropanecarbonyl-4-methyl-8-oxa-2,5,6,12,16, 17-hexaazatricyclo[11.3.1.0^3,7]heptadeca-1(16),3,6,13(17),14-pentaene] | ≤ 100 nM | > 10 mL/min/g | –
Cc1c2c(nn1C1CC(F)CN(C3COC3)C1)OCC[C@@H](C)Nc1nc(ncc1Cl)N2 (stereo partly drawn) [E410, (11R)-14-Chloro-5-[5-fluoro-1-(oxetan-3-yl)piperidin-3-yl]-4,11-dimethyl-8-oxa-2,5,6,12,16,17 hexaazatricyclo[11.3.1.0^3,7] heptadeca-1(16),3,6,13(17),14-pentaene] | ≤ 100 nM | – | ≤ 100 nM
Cc1c2c(nn1C1CCN(C3COC3)CC1(F)F)OCC[C@@H](C)Nc1nc(ncc1Cl)N2 (stereo partly drawn) [E411, (11R)-14-Chloro-5-[3,3-difluoro-1-(oxetan-3-yl)piperidin-4-yl]-4,11-dimethyl-8-oxa-2,5,6,12,16,17-hexaazatricyclo[11.3.1. 0^3,7]heptadeca-1(16),3,6,13(17),14-pentaene] | ≤ 100 nM | – | ≤ 100 nM
C[C@@H]1CCOc2nn(C3CCOCC3)c(C(F)(F)F)c2Nc2ncc(Cl)c(n2)N1 [E416, (11R)-14-Chloro-11-methyl-5-(oxan-4-yl)-4-(trifluoromethyl)-8-oxa-2,5,6,12,16,17-hexaazatricyclo[11.3.1.0^3,7]heptadeca-1(16),3,6,13(17),14-pentaene] | ≤ 100 nM | – | ≤ 100 nM
Cc1c2c(nn1C(C)(C)C)OCC[C@@H](C)Nc1nc(ncc1Cl)N2 [E417, (11R)-5-tert-Butyl-14-chloro-4,11-dimethyl-8-oxa-2,5,6,12,16,17-hexaazatricyclo[11.3.1.0^3,7]heptadeca-1(16),3,6,13(17),14-pentaene] | ≤ 100 nM | – | ≤ 100 nM
Cc1c2c(nn1C1CCOCC1(C)C)OCC[C@@H](C)Nc1nc(ncc1Cl)N2 (stereo partly drawn) [E421, (11R)-14-Chloro-5-(3,3-dimethyloxan-4-yl)-4,11-dimethyl-8-oxa-2,5,6,12,16,17-hexaazatricyclo[11.3.1.0^3,7]heptadeca-1(16),3,6,13(17),14-pentaene] | ≤ 100 nM | – | ≤ 100 nM
C[C@@H]1CCOc2nn(C3CN(C4COC4)C3)c(Cl)c2Nc2ncc(Cl)c(n2)N1 [E427, (11R)-4,14-Dichloro-11-methyl-5-[1-(oxetan-3-yl)azetidin-3-yl]-8-oxa-2,5,6,12,16,17-hexaazatricyclo[11.3.1.0^3,7]heptadeca-1(16),3,6,13(17),14-pentaene] | ≤ 100 nM | – | ≤ 100 nM
Cc1c2c(nn1C1CCOCC1)OCCCNc1nc(ncc1C(C)C)N2 [E428, 4-Methyl-5-(oxan-4-yl)-14-(propan-2-yl)-8-oxa-2,5,6,12,16,17-hexaazatricyclo[11.3.1.0^3,7]heptadeca-1(16),3,6,13(17),14-pentaene] | > 10000 nM | – | ≤ 10000 nM

More lines, now with the values ahead:

IC50 [1] | Clint (human) (human hepatocytes) | IC50 [2] | SMILES
> 10000 nM | – | ≤ 10000 nM | C=C(C)c1cnc2nc1NCCCOc1nn(C3CCOCC3)c(C)c1N2 [E429, 4-Methyl-5-(oxan-4-yl)-14-(prop-1-en-2-yl)-8-oxa-2,5,6,12,16,17-hexaazatricyclo[11.3.1.0^3,7]heptadeca-1(16),3,6,13(17),14-pentaene]
≤ 100 nM | – | ≤ 100 nM | CCc1[nH]nc2c1Nc1ncc(Cl)c(n1)N[C@H](C)CCO2 [E430, (11R)-14-Chloro-4-ethyl-11-methyl-8-oxa-2,5,6,12,16,17-hexaazatricyclo[11.3.1.0^3,7]heptadeca-1(16),3,6,13(17),14-entaene]
≤ 100 nM | – | ≤ 100 nM | Cc1[nH]nc2c1Nc1ncc(Br)c(n1)NCCCO2 [E432, 14-Bromo-4-methyl-8-oxa-2,5,6,12,16,17-hexaazatricyclo[11.3.1.0^3,7]heptadeca-1(16),3,6,13(17),14-pentaene]
≤ 100 nM | – | ≤ 100 nM | Cc1[nH]nc2c1Nc1ncc(C(F)(F)F)c(n1)NCCCO2 [E433, 4-Methyl-14-(trifluoromethyl)-8-oxa-2,5,6,12,16,17-hexaazatricyclo[11.3.1.0^3,7]heptadeca-1(16),3,6,13(17),14-pentaene]
≤ 100 nM | – | ≤ 100 nM | FC1(F)CN(C2COC2)CCC1n1nc2c(c1Cl)Nc1ncc(Cl)c(n1)NCCCO2 (centres unmarked) [E446, 4,14-Dichloro-5[3,3-difluoro-1-(oxetan-3-yl)piperidin-4-yl]-8-oxa-2,5,6,12,16,17-hexaazatricyclo[11.3.1.0^3,7]heptadeca-1(16),3,6,13(17),14-pentaene]
